The Biogen ADME set (Fang et al. 2023)
In brackets after ≈: the same amount, converted by molar mass.

Conditions: for aqueous solubility: pH 6.8

SMILES	MDR1-MDCK efflux ratio	intrinsic clearance, human liver microsomes [mL/min/kg]	intrinsic clearance, rat liver microsomes [mL/min/kg]	aqueous solubility [µg/mL]	fraction unbound, human plasma
NC(=O)c1cnc(NC2CC2)nc1CCNC(=O)C1(c2cccc(F)c2)CCOCC1	32.6	37.7	88.6	77.3 (≈ 181 µM)	–
CC(C)(C)c1cc(NS(=O)(=O)c2c(Cl)cccc2Cl)cc(C(C)(C)C)c1	–	89.6	1030	–	–
N#Cc1c(O)nc2scc(-c3ccc(-c4ccccc4O)cc3)c2c1O	1.19	11.2	≤ 10.7	58.8 (≈ 163 µM)	–
Cc1ccc(C(N)=O)c(OCc2c(Cl)ccc3cccnc23)c1	0.372	–	–	0.61 (≈ 1.87 µM)	–
NC1CCCC(C(=O)Nc2ccc3[nH]ncc3c2)C1 (stereo unspecified)	0.764	12.7	–	–	1
N#Cc1nc(-c2ccccc2)oc1NCc1ccc2c(c1)OCO2	–	208	707	–	–
Cc1nnc(NC(C2CC2)C2CC2)c(C#N)c1C	–	–	–	7.54 (≈ 31.1 µM)	–
Cc1nc(C2CCN(c3ccc(F)cc3C#N)CC2)no1	–	9.68	527	–	–
CCOC(=O)N1CCN(C(=O)Nc2cccc3c2CCCC3)CC1	1.68	37.6	394	51.6 (≈ 156 µM)	–
CCN(C)S(=O)(=O)N(C)Cc1cnc2ccccc2c1	0.658	15.1	2320	–	–
O=C(NCC1=CCCN(Cc2cc(F)ccc2Cl)C1)c1ccco1	0.69	200	1640	37.8 (≈ 108 µM)	–
O=C(Cc1ccc(Cl)cc1)NCc1ccncc1	0.772	≤ 4.74	35.9	51.6 (≈ 198 µM)	–
Fc1ccccc1CNc1nc(-c2ccccc2)no1	0.605	24.5	131	3.51 (≈ 13 µM)	–
CNc1cc(C)nc(-c2ccnc3c2ccn3C)n1	–	85.7	82.2	29.2 (≈ 115 µM)	–
CNC(=O)c1ccc2c(c1)NC(=O)/C2=C(\Nc1cccc(CN(C)C)c1)c1ccccc1	–	–	–	8.39 (≈ 19.7 µM)	–
CCOc1cc(N2CCOC3(CCCC3)C2)ncn1	0.579	37.4	631	–	–
OCCN1CCC(c2ccncn2)CC1	0.615	≤ 4.74	35.2	37.4 (≈ 181 µM)	–
Cc1ccc(C)c(OCCN(C)C(=O)c2ccc3c(c2)nnn3C)c1	1.23	59.5	1030	29.2 (≈ 86.4 µM)	–
CC(C)c1ccc(CN2CCN(C(=O)C3CCN(C(=O)C4CC4)CC3)CC2)cc1	2.65	32.1	379	–	–
COc1cccc(/C=C2/N=C(c3ccccc3C)NC2=O)c1OC	–	–	–	0.35 (≈ 1.09 µM)	–
CCCC1(CNC(=O)Cn2ccc(=O)cc2)CCC1	14.3	≤ 4.74	14.6	–	–
CC1CC1C(=O)N1CCC(n2c(=O)[nH]c3ccccc32)CC1 (stereo unspecified)	–	≤ 4.74	162	32.2 (≈ 108 µM)	–

SMILES	MDR1-MDCK efflux ratio	intrinsic clearance, human liver microsomes [mL/min/kg]	intrinsic clearance, rat liver microsomes [mL/min/kg]	aqueous solubility [µg/mL]	fraction unbound, human plasma
CC(=O)Nc1ccc2nc(C)cc(O)c2c1	1.55	≤ 4.74	≤ 10.7	38.7 (≈ 179 µM)	–
Cn1cc(C(=O)O)c(-c2cccnc2)n1	–	–	–	40.8 (≈ 201 µM)	–
CCn1cc(NC(=O)c2ccccc2C)cn1	0.593	7.18	≤ 10.7	32.2 (≈ 140 µM)	–
COCCc1nc(CCCn2cccn2)n(C2Cc3ccccc3C2)n1	9.86	25.1	550	21.4 (≈ 60.9 µM)	–
O=C(O)c1ccc(-c2c[nH]c3ncc(-c4ccccc4)cc23)cc1C1CCCC1	1.54	–	–	0.41 (≈ 1.07 µM)	–
CCCC(=O)Nc1cnc(N2CCN(C)CC2)nc1	1.39	≤ 4.74	34.4	35.3 (≈ 134 µM)	–
CC(=O)Nc1nc(-c2c(C)cc(C)cc2C)cs1	0.559	24.9	2360	19.2 (≈ 73.7 µM)	–
O=C(NCCc1ccc2c(c1)OCO2)N1CCc2sccc2C1	0.646	164	1240	45.5 (≈ 138 µM)	–
Cc1cc(C(=O)O)nn1-c1ccccn1	–	≤ 4.74	≤ 10.7	–	–
Cc1ccc(OC[C@@H](O)[C@H](C)NC(C)C)c2c1CCC2	1.38	124	3140	–	–
CON(C)C(=O)c1cc(C)ccc1NS(C)(=O)=O	1.52	≤ 4.74	≤ 10.7	33.3 (≈ 122 µM)	–
O=C1CCCN1CCCN1CCC(n2c(=O)[nH]c3ccccc32)CC1	–	≤ 4.74	15.7	15.9 (≈ 46.4 µM)	–
COc1ccc(C2(NCc3ccc(N4CCCC4=O)cc3)CC2)cc1	0.512	13.4	266	81.5 (≈ 242 µM)	–
C[C@@H](CN1CCC(n2c(=O)[nH]c3cc(Cl)ccc32)CC1)NC(=O)c1ccc2ccccc2c1	–	104	668	3.85 (≈ 8.32 µM)	–
C#CCNC(=O)CN1CCCN(C(=O)c2cccc(C)n2)CC1	32.5	≤ 4.74	15.7	36.5 (≈ 116 µM)	–
Cc1cc(Nc2ccc(F)cn2)cc(C2CCN(C(=O)Cn3nc(C)ccc3=O)C2)n1 (stereo unspecified)	29.9	19.7	89.9	–	–
Cc1cnc(NCc2ccccc2-n2ccnc2)nc1N(C)C	11.3	33.7	486	52.2 (≈ 169 µM)	–
COc1ccc(CNC(=O)CCCOc2ccc(C(C)=O)cc2)cc1	1.02	34.5	644	20.2 (≈ 59.2 µM)	–
CNC(=O)c1cccc(NC(=O)N2CCC(Oc3ccccc3Cl)CC2)c1	20	6.6	223	68.8 (≈ 177 µM)	0.117
Fc1cccc(N[C@H]2CCCN[C@H]2Cc2ccccc2)c1	–	61	658	42.6 (≈ 150 µM)	–
Cc1nnc2ccc(NCCOC3CCCCCC3)nn12	1.54	49.9	901	–	–
